According to paper PMC10953372 (2023):

Tests used:
[1] = system: Neomycin-bindender Riboschalter (2FA-markiert) (RNA, riboswitch, 2-fluoroadenine at 16, 17 and 24) GGCUGCUUGUCCUUUAAUGGUCCAGCC; assay: 19F NMR titration and CEST; conditions: 303 K; 215-1200 µM samples, 1 to 1.5 equivalents of ligand
[2] = system: Neomycin-bindender Riboschalter (2FA-markiert) (RNA, riboswitch, 2-fluoroadenine at 16, 17 and 24) GGCUGCUUGUCCUUUAAUGGUCCAGCC; assay: 19F NMR CEST; conditions: 303 K; derived from kex = [L]kon + koff = 88 ± 8 s^-1; subsaturating ligand

| binding [1] | koff [2] | Structure (SMILES) |
| --- | --- | --- |
| yes |  | NC[C@@H]1O[C@H](O[C@H]2[C@@H](O)[C@H](O[C@@H]3[C@@H](O)[C@H](N)C[C@H](N)[C@H]3O[C@H]3O[C@H](CN)[C@@H](O)[C@H](O)[C@H]3N)O[C@@H]2CO)[C@H](N)[C@@H](O)[C@@H]1O |
|  | ~ 1.4 s^-1 | NC[C@H]1O[C@H](O[C@H]2[C@H](O[C@@H]3O[C@H](CO)[C@@H](O)[C@H]3O)[C@@H](O)[C@H](N)C[C@@H]2N)[C@H](N)[C@@H](O)[C@@H]1O |
